Data taken from patent publication US9012492B2, “Apocynin-lipoic acid conjugates and uses thereof” (priority 2011, dated 2015).

How the values were obtained:
[1] = tested on: markers of oxidative stress (SOD1, SOD2, GSH, GSSG, H2O2, HNE-His adducts, DNA fragmentation); test: Markers of oxidative stress in ischemic cortex following I/R; format: in vivo, rat
Procedure: To examine the effect of the compound of Formula (Ia) on various markers of oxidative stress throughout the 5.5 h of reperfusion, injections of the optimal dose of the compound of Formula (Ia) (0.1 mg/kg; 1 ml/kg iv; n=5 per group at each time point) or vehicle (25% EtOH; 1 ml/kg iv; n=5 per group at each time point) were made 30 min prior to the onset of MCAO. The sutures were left in place for 30 min. Brains were removed, and cortical tissue was collected at the end of the 30 min of occlusion (no reperfusion), or following 30 min, 1, 2, 4, or 5.5 h of reperfusion. At the end of each time point, animals were perfused transcardially with 200 ml of 100 mM PBS (pH 7.4), and the brains were removed. The ipsilateral cerebral cortex was isolated, and an 8-mm diameter biopsy punch was used to obtain tissue from the ischemic core. The tissue was weighed and homogenized (40% wt/vol) in ice-cold PBS. Aliquots of whole homogenate were frozen at −80° C. immediately for measurements of hydrogen peroxide (H2O2). The remaining sample was diluted 1:2 with ice-cold PBS and centrifuged at 12,000 g for 15 min at 4° C. Aliquots of the supernatant were stored at −80° C. until assayed for protein levels, superoxide dismutase (SOD1 and SOD2) activity, 4-hydroxynonenal-histodine (HNE-His) adducts (OxiSelect Kits, Cell Biolabs, San Diego, Calif.), reduced glutathione (GSH), oxidized glutathione (GSSG; Cayman Chemical, Ann Arbor Mich.), and cytoplasmic enrichment of DNA fragments (apoptosis) (Roche Diagnostics, Montreal, QC, Canada) using selective assay kits according to manufacturer's specifications.

rat liver microsomes = test: Metabolic stability using rat liver microsomes; format: in vitro ADME; conditions: RLM
Source text: Table 7 summarizes the experimental conditions used in the studies of the metabolic stability of the compound of Formula (Ia) using rat liver microsomes. Table 8 and FIG. 13 show the results from the studies of the metabolic stability of the compound of Formula (Ia) using rat liver microsomes. [table]

[2] = tested on: dog liver microsomes (DLM); test: Metabolic stability using dog liver microsomes; format: in vitro ADME
Source text: Table 9 summarizes the experimental conditions used in the studies of the metabolic stability of the compound of Formula (Ia) using dog liver microsomes and human liver microsomes.

COc1cc(C(C)=O)ccc1OC(=O)CCCCC1CCSS1 (stereo not drawn) [compound of Formula (Ia)]
mitochondrial SOD2 activity levels vs vehicle ([1]; 0.1 mg/kg iv 30 min prior to MCAO, 4-h time point): significantly higher | oxidized form of GSH (GSSG) vs vehicle ([1]; 0.1 mg/kg iv 30 min prior to MCAO, after 5.5 h of reperfusion): significantly greater | total amount of GSH (oxidized and reduced forms) vs vehicle ([1]; 0.1 mg/kg iv 30 min prior to MCAO, any time point): No significant differences | cytoplasmic SOD1 activity levels vs vehicle ([1]; 0.1 mg/kg iv 30 min prior to MCAO, any time point during 5.5 h reperfusion): no significant differences | level of hydrogen peroxide vs vehicle ([1]; 0.1 mg/kg iv 30 min prior to MCAO, any time point over 5.5 h reperfusion): not significantly greater | DNA fragmentation (apoptotic cell death) ([1]; 0.1 mg/kg iv 30 min prior to MCAO, each time point): No significant changes | HNE-His adduct levels vs vehicle ([1]; 0.1 mg/kg iv 30 min prior to occlusion, following 2 h of reperfusion): significantly attenuated | % Metabolism in 30 minutes (rat liver microsomes; control (without NADPH)): 0% | CLintr (mL/min/g liver) (rat liver microsomes; control (without NADPH)): >67 mL/min/g liver | % Metabolism in 30 minutes (rat liver microsomes; reaction (with NADPH)): 0% | CLintr (mL/min/g liver) (rat liver microsomes; reaction (with NADPH)): >67 mL/min/g liver | % Metabolism in 30 minutes ([2]; DLM control (without NADPH)): 0% | CLintr (mL/min/g liver) ([2]; DLM control (without NADPH)): >67 mL/min/g liver | % Metabolism in 30 minutes ([2]; DLM reaction (with NADPH)): 0% | CLintr (mL/min/g liver) ([2]; DLM reaction (with NADPH)): >67 mL/min/g liver
